Laboratory results reported in patent US20240226034A1, “Use of Terpenoids and Salicylates as Anesthetics and Analgesics” (THE REGENTS OF THE UNIVERSITY OF CALIFORNIA, priority 2021, published 2024).

Legend:
[1] = cited from earlier work
[2] = test system: Sprague Dawley rats; assay: Continuous IV infusion anesthesia; assay type: in vivo, rat; settings: for time after start of injection to loss-of-righting and absent tail clamp response: continuous 0.2 mL/min IV infusion of 10% emulsion
Procedure: Lateral tail veins were catheterized in eight, 70-day-old, male, Sprague Dawley rats weighing 309±6 g. A 10% solution of L-carvone or methyl salicylate in 20% […]® was each administered IV to 8 rats (4 animals per drug treatment) by using a syringe pump at a rate of 12 mL/h. When rats lost their righting reflex and were unresponsive to a tail clamp, a midline laparotomy was performed, the abdominal aorta catheterized, and the rat exsanguinated. Blood was collected in a heparin tube and centrifuged; plasma was separated and stored in cryogenic tubes at −80° C. until analysis.

[3] = test system: Sprague Dawley rats; assay: Another experiment: IV doses of 10% (v/v) solutions in […]; assay type: in vivo, rat
Excerpt: In another experiment, a 10% (v/v) solution of methyl salicylate in […]®, and a 10% (v/v) solution of L-carvone in […]® were each tested in Sprague Dawley rats that each weighed approximately 300 g.

[4] = test system: sciatic nerve axon of frogs; settings: frog sciatic nerve axon; read-out: IC50, decrease of compound action potential amplitude; cited from earlier work
[5] = molecular target: T1, human benzodiazepine-sensitive α1β2γ2s GABAA receptors (Homo sapiens, UniProt P14867+P18507+P47870); settings: concentrations up to 0.12 mM; cited from earlier work
T1 construct: host or cells: frog oocytes

[6] = test system: GABAA receptors, rat cerebral cortex cell cultures; settings: 0.75 mM; cited from earlier work
[7] = test system: rat sciatic nerves; settings: read-out: IC50, decrease of compound action potentials; cited from earlier work
[8] = Sprague Dawley, rat, in vivo, iv

T1 sequence (P14867 28-456): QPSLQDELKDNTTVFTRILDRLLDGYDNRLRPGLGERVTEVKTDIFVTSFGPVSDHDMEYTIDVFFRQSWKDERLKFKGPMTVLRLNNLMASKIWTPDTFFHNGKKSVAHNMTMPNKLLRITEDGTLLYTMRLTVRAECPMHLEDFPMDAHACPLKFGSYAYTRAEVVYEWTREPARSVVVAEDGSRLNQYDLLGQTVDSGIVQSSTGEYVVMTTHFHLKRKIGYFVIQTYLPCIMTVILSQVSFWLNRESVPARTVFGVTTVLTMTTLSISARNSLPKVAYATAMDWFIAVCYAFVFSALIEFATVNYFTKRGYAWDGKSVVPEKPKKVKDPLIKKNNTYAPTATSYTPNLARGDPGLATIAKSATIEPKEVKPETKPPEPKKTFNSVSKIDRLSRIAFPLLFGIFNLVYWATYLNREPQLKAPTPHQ
T1 sequence (P47870 26-474 isoform P47870-1 limits assumed): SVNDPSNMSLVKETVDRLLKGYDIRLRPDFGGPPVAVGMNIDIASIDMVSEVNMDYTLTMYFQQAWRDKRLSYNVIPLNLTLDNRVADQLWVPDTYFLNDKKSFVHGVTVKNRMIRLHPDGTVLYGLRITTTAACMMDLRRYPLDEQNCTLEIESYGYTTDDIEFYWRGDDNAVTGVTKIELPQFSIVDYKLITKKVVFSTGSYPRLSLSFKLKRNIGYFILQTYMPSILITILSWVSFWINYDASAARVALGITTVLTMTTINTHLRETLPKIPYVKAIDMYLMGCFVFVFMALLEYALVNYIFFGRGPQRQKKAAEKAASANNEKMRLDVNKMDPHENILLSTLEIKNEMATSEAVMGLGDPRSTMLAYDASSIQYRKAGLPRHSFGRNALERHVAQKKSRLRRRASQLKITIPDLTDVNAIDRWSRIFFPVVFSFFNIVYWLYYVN
T1 sequence (P18507 40-467 isoform P18507-1 limits assumed): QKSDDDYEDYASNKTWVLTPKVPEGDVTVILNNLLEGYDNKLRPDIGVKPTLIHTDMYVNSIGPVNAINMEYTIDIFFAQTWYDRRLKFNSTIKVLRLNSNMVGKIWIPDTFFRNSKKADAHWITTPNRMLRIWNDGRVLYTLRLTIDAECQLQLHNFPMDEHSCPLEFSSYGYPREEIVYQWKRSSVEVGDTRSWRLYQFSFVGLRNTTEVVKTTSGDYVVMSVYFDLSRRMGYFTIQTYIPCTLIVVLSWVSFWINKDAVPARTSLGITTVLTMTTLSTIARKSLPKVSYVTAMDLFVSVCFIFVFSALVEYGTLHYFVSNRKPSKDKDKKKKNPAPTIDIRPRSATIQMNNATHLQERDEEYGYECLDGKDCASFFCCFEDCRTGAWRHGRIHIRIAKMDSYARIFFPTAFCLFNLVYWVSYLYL

COC(=O)c1ccccc1O [methyl salicylate]
solubility in water relative to cutoff values for modulation of the 3 ion channels [1]: more soluble in water than the cutoff values | time after start of injection to loss-of-righting and absent tail clamp response [2]: 3 to 4 min | excitement after injection ([2]; rat, in vivo, iv): transient excitement in half of the animals | tonic or clonic muscle activity ([2]; rat, in vivo, iv): No tonic or clonic muscle activity | duration of loss of righting reflex ([3]; 0.2 mL IV): 30 s | time to ambulatory after return of righting ([3]; 0.2 mL IV): 40 s | time to loss of righting reflex ([3]; 0.2 mL IV): ≤ 25 s | time to loss of righting ([3]; 0.4 mL IV): 15 s | time from apnea to confirmed cardiac arrest [3, 8]: less than 1 minutes | time from loss of righting to apnea [3, 8]: 5 s | gross necropsy performed 2 days later ([3]; rat, in vivo, iv): No evidence of hepatic, renal, cardiac, or pulmonary injury

L-carvone
IC50 [4]: 1.4 mM | response of α1β2γ2s GABAA receptors [5]: minimal response | tonic or clonic muscle activity ([2]; continuous 0.2 mL/min IV infusion): tonic muscle contractions suggestive of seizure | time after start of injection to loss-of-righting and absent tail clamp response [2]: 2 to 4 min | reduction of GABAA-induced benzodiazepine binding [6]: 36% | duration of general anesthesia effects ([3]; 0.2 mL IV): 1 min | gross necropsy performed 2 days later ([3]; 0.2 mL IV): No evidence of hepatic, renal, cardiac, or pulmonary injury | time after administration to awake and ambulatory ([3]; 0.2 mL IV): ≤ 3 min | time to general anesthesia (loss of righting reflex and tail clamp response) ([3]; 0.2 mL IV, approx. 300 g rats): ≤ 30 s | apnea after onset of anesthesia ([3]; 0.4 mL IV): almost immediately | time from apnea to confirmed cardiac arrest ([3]; 0.4 mL IV): 2 min | time to anesthesia ([3]; 0.4 mL IV): ≤ 45 s | IC50 [7]: 8.7 mM
